Results published in patent US7214669B2, “Tetracycline derivatives and methods of use thereof” (Tetragenex Pharmaceuticals, Inc., priority 2001, dated 2007).
Where “and” joins values, the source holds several entries; their conditions need not be identical. Identical values can stand only once.

Tests used:
Human recombinant MMP9 = Human recombinant MMP9 (Homo sapiens, UniProt P14780); test: MMP9 (Gelatinase B) inhibition, 14C gelatin release; assay type: biochemical; conditions: 37° C., 16 hours; read-out: MMP-9 inhibitory activity, IC50
MMP2 (Gelatinase A) = target: T1, MMP2 (Gelatinase A) (Homo sapiens, UniProt P08253); test: MMP2 (Gelatinase A) inhibition, 14C gelatin release; assay type: biochemical; conditions: 37° C., 16 hours; read-out: MMP-2 inhibitory activity, IC50
T1 sequence (P08253 110-660): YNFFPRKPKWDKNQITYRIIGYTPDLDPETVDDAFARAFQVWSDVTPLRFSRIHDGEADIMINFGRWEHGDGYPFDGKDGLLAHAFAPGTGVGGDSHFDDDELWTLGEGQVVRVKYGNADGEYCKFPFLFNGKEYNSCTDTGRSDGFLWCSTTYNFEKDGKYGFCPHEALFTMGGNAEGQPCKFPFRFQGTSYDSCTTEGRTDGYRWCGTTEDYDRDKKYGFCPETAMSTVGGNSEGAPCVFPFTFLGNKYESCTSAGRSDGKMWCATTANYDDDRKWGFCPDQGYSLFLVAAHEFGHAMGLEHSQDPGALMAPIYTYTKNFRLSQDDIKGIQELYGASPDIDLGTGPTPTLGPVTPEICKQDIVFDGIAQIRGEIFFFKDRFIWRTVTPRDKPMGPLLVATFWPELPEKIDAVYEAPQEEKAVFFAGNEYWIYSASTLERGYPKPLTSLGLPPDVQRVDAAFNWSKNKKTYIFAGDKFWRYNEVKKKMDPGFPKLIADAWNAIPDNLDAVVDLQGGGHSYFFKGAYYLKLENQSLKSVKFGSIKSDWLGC
Experimental: Protocol for Measuring MMP2 (Gelatinase A) Inhibition
MMP2 activity was determined by the release of trichloracetic acid, TCA, soluble fragments from ^14C acetylated rat skin type I gelatin (Methods in Enzymology 248, 470, 1995. Biochem. J. 195, 1981)
• 100 μg ^14C labelled gelatin (type I collagen denatured 60° C. 20 min) • 50 mM Tris HCl pH 7.9 • 15 mM CaCl2, 0.02% azide • Human recombinant MMP1, 0.1–0.5 nM • ±Tetracycline (up to 1 MM) in a total volume of 250 μl.
Incubations were set at 37° C. for 16 hours. The reaction was stopped by cooling the incubations and addition of 50 μl cold 90% (w/v) trichloracetic acid with careful mixing. TCA precipitation was allowed to proceed for 15 minutes at 4° C. prior to cetrifugation at 10,000 g for 10 minutes at 4° C. 200 μl of the TCA supernatant was taken for the determination of radioactive content by scintillation counting (Packard Opti Phase Supermix scintillation fluid). Only data derived from within the linear part of the assay (10–70% lysis) were utilized. The percentage inhibition of MMP2 by each tetracycline concentration was plotted to derive the IC50 value, using linear regression analysis.

Human recombinant MMP14 = Human recombinant MMP14 (Homo sapiens, UniProt P50281); test: MMP14 (MTI-MMP) inhibition, 14C collagen release; assay type: biochemical; conditions: 35° C., 15 hours; read-out: MMP-14 inhibitory activity, IC50
Experimental: Protocol for Measuring MMP14 (MTI-MMP) Inhibition by Tetracycline Derivatives
MMP14 activity was determined by the release of soluble ^14C labelled collagen fragments from ^14C acetylated rat skin type I collagen (Methods in Enzymology 80 711, 1981).
• 100 μg ^14C labelled collagen (5–6000 dpm) • 50 mM Tris HCL pH 7.9 • 15 mM CaCl2 0.02% azide • Human recombinant MMP14 50–100 nM • ±Tetracycline (up to 1 mM) in a total volume of 300 μl.
Incubations were at 35° C. for 15 hours. Uncleaved collagen fibrils (which form within the first 10 minutes) were removed by centrifugation at 10,000 g 4° C. 10 minutes 200 μl supernatant were counted in Packard Opti Phase Supermix scintillation fluid using a scintillation counter. Only data derived from within the linear part of the assay (10–70% lysis of the collagen) were utilized. Based on percentage inhibition of the activity of MMP1 alone by a range of concentrations of each sample, the IC50 value for each tetracycline was calculated.

Human recombinant MMP1 = target: T2, Human recombinant MMP1 (Homo sapiens, UniProt P03956); test: MMP1 (Collagenase-1) inhibition, 14C collagen release; assay type: biochemical; conditions: 35° C., 5 hours; read-out: MMP-1 inhibitory activity, IC50
T2 sequence (P03956 100-469): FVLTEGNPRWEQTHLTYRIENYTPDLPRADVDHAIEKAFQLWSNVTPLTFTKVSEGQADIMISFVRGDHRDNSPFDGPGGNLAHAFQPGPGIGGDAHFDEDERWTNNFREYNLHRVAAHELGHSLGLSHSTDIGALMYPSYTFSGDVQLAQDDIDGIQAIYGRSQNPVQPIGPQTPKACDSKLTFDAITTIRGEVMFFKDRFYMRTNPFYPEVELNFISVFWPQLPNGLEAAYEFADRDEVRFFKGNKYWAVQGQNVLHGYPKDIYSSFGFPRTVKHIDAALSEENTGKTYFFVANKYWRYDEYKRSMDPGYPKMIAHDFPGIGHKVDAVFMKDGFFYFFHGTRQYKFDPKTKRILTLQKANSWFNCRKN
Experimental: Protocol for Measuring MMP1 (Collagenase-1) Inhibition by Tetracycline Derivatives
MMP1 activity was determined by the release of soluble ^14C labelled collagen fragments from ^14C acetylated rat skin type I collagen (Methods in Enzymology 80 711, 1981).
• 100 μg ^14C labelled rat skin type I collagen (5–6000 dpm) • 50 mM Tris HCl pH 7.9 • 15 mM CaCl2 0.02% azide • Human recombinant MMP1 3–4 nM • ±Tetracycline (up to 1 mM) in a total volume of 300 μl.
Incubations were at 35° C. for 5 hours. Uncleaved collagen fibrils (which form within the first 10 minutes) were removed by centrifugation at 10,000 g, 4° C., 10 minutes. 200 μl supernatant were counted in Packard Opti Phase Supermix scintillation fluid using a scintillation counter. Only data derived from within the linear part of the assay (10–70% lysis of the collagen) were utilized. Based on percentage inhibition of the activity of MMP1 alone by a range of concentrations of each sample, the IC50 value for each tetracycline was calculated by linear regression analysis.

Human recombinant MMP3 = Human recombinant MMP3 (Homo sapiens, UniProt P08254); test: MMP3 (Stromelysin 1) inhibition, 14C casein release; assay type: biochemical; conditions: 37° C., 16 hours; read-out: MMP-3 inhibitory activity, IC50
Experimental: Protocol for Measuring MMP3 (Stromelysin 1) Inhibition
• 100 μg ^14C casein (7000 dpm) • 50 mM Tris HCl, pH 7.9 • 15 mM CaCl2, 0.02% azide • Human recombinant MMP3, 0.25–1.0 nM • ±tetracycline (up to 1 mM) in a total volume of 250 μl.
Incubations were at 37° C. for 16 hours. The reaction was stopped by the addition of 500 μl cold 18% TCA and standing on ice for 15 minutes. TCA precipitates were removed by centrifugation at 10,000 g for 10 minutes at 4° C. and 200 μl supernatant was taken for scintillation counting. Only data derived from within the linear part of the assay (10–60% lysis) were utilized. The percentage inhibition of MMP3 by each concentration of the candidate tetracycline was plotted to derive the IC50 value, using linear regression analysis.

[1] = test system: MDA-MB-231 human breast cancer cells; test: Membrane Invasion Culture System (MICS) chemo-invasion assay; assay type: cell-based; conditions: 24 hours, + = increased invasiveness
Summary of the method: (§1)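 Fifty thousand cells were seeded above a 35 μm laminin/collagen IV/gelatin barrier on a 10 μm-pore filter, with serum-free RPMI plus 50% fibroblast-conditioned medium below as chemoattractant. Compound at 1, 10 or 25 μg/ml, or DMSO vehicle, was present for 24 h. Invaded cells were collected, Wright-stained and counted over 5 fields.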

[2] = test system: Arp-1 human myeloma cancer cells; test: as above; assay type: cell-based; conditions: 24 hours, + = increased invasiveness
Summary of the method: as §1

[3] = test system: Ark human myeloma cancer cells; test: as above; assay type: cell-based; conditions: 24 hours, + = increased invasiveness
Summary of the method: as §1

[4] = test system: C8161 human melanoma cells; test: as above; assay type: cell-based; conditions: 24 hours, + = increased invasiveness
Summary of the method: as §1

[5] = test system: PC-3 ML human prostate cancer cells; test: as above; assay type: cell-based; conditions: 24 hours, + = increased invasiveness
Summary of the method: as §1

Human recombinant MMP7 = target: T3, Human recombinant MMP7 (Homo sapiens, UniProt P09237); test: MMP7 (Matrilysin) inhibition, 14C casein release; assay type: biochemical; conditions: 37° C., 16 hours; read-out: MMP-7 inhibitory activity, IC50
T3 sequence (P09237 95-267): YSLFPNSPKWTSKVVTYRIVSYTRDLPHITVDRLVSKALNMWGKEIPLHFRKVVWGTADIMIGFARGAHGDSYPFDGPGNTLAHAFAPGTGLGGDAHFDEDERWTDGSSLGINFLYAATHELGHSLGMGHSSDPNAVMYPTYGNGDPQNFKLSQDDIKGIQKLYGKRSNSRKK
Experimental: MMP7 activity was determined by the release of trichloracetic acid, TCA, soluble fragments from ^14C acetylated β casein (Sigma) as described in Methods in Enzymology 248, 451 (1995).
• 100 μg ^14C casein (7000 dpm) • 50 mM Tris HCl, pH 7.9 • 15 mM CaCl2, 0.02% azide • Human recombinant MMP7, 1.5 nM • ±tetracycline (up to 1 mM) in a total volume of 250 μl.
Incubations were at 37° C. for 16 hours. The incubation was stopped by the addition of 500 μl cold 18% TCA and standing on ice for 15 minutes. TCA precipitates were removed by centrifugation at 10,000 g for 10 minutes at 4° C., and 200 μl supernatant was taken for scintillation counting. Only data derived from within the linear part of the assay (10–60% lysis) were utilized. The percentage inhibition of MMP7 by each concentration of the candidate tetracycline were plotted to derive the IC50 value.

[6] = test system: RPMI-8226 human myeloma cancer cells; test: Membrane Invasion Culture System (MICS) chemo-invasion assay; assay type: cell-based; conditions: 24 hours, + = increased invasiveness
Summary of the method: as §1

Sequence of Human recombinant MMP3 (P08254 100-477): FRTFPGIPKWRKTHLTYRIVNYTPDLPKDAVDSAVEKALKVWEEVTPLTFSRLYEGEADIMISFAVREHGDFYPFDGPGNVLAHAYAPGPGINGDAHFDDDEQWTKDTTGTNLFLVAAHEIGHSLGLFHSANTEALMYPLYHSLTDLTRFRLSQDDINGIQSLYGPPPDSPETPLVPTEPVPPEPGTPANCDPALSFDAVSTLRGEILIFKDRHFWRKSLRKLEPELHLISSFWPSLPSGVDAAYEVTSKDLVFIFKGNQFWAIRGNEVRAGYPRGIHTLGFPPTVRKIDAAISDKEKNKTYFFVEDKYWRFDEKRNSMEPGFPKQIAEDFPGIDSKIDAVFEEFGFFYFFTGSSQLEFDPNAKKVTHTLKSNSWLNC
Sequence of Human recombinant MMP9 (P14780 94-707): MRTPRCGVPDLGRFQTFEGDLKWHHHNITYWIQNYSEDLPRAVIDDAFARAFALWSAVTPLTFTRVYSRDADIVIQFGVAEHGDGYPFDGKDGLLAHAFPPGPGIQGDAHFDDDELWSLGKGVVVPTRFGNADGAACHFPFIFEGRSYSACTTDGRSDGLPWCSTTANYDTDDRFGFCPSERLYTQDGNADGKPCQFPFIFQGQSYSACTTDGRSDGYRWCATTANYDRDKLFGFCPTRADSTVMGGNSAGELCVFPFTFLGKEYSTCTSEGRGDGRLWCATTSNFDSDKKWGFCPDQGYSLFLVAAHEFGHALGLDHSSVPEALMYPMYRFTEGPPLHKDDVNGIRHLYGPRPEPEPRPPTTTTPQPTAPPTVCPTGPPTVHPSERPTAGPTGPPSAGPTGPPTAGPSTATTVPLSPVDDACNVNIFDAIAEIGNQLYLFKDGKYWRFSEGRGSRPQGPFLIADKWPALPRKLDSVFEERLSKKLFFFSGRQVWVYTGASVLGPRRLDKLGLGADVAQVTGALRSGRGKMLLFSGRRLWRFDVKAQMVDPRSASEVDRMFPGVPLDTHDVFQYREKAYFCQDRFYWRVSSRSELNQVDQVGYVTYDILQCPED

SMILES	IC50 (Human recombinant MMP9) [µM]	IC50 (MMP2 (Gelatinase A)) [µM]	IC50 (Human recombinant MMP14) [µM]	IC50 (Human recombinant MMP1) [µM]	IC50 (Human recombinant MMP3) [µM]	percent inhibition, MDA-MB-231 (Breast) ([1]; 1 ug/mL)	percent inhibition, MDA-MB-231 (Breast) ([1]; 10 ug/mL)	percent inhibition, MDA-MB-231 (Breast) ([1]; 25 ug/mL)	percent inhibition, ARK ([3]; 1 ug/mL)	percent inhibition, ARK ([3]; 10 ug/mL)	percent inhibition, ARK ([3]; 25 ug/mL)	percent inhibition, C8161 (Melanoma) ([4]; 1 ug/mL)	percent inhibition, C8161 (Melanoma) ([4]; 10 ug/mL)	percent inhibition, C8161 (Melanoma) ([4]; 25 ug/mL)	percent inhibition, PC-3 ML (Prostrate) ([5]; 1 ug/mL)	percent inhibition, PC-3 ML (Prostrate) ([5]; 10 ug/mL)	percent inhibition, PC-3 ML (Prostrate) ([5]; 25 ug/mL)	IC50 (Human recombinant MMP7)	percent inhibition, RPMI-8226 (Multiple Myeloma) ([6]; 1 ug/mL)	percent inhibition, RPMI-8226 (Multiple Myeloma) ([6]; 10 ug/mL)	further results
CC(C)Nc1ccc2c(c1O)C(=O)C1=C(O)C3(O)C(=O)C(C(N)=O)=C(O)C(N(C)C)C3C(O)C1C2C (stereo not drawn) [Compound 3, 9-Isopropylamino-6-deoxy-5-hydroxytetracycline H2SO4]	136	> 1000	216	> 1000	304	+8%	+2%	12%	+11%	+6%	+15%	30^B percent	22^B percent	15^B percent	3%	+1%	25^B percent	> 1000 µM			percent inhibition, ARP-1 ([2]; 1 ug/mL): +13%; percent inhibition, ARP-1 ([2]; 10 ug/mL): +1%; percent inhibition, ARP-1 ([2]; 25 ug/mL): +16%
CN(C)c1cc([N+](=O)[O-])c(O)c2c1CC1CC3C(N(C)C)C(O)=C(C(N)=O)C(=O)C3(O)C(O)=C1C2=O (stereo not drawn) [Compound 4, 7-Dimethylamino-6-demethyl-6-deoxy-9-nitrotetracycline H2SO4]	36	421	61	409	219	5%	6%	2%				27^B percent	24^B percent	17%	10%	+8%	3%	278 µM	+4%	+5%	percent inhibition, RPMI-8226 (Multiple Myeloma) ([6]; 25 ug/mL): +14%
CC1c2ccc(N=[N+]=[N-])c(O)c2C(=O)C2=C(O)C3(O)C(=O)C(C(N)=O)=C(O)C(N(C)C)C3C(O)C21 (stereo not drawn) [Compound 6, 9-Azido-6-deoxy-5-hydroxytetracycline H2SO4]	83	135	56	394	241			27^B percent and 42^B percent	12%	0%	8%		33^B percent and 21^B percent	32^B percent and 33^B percent	21% and 13%	26% and 32^B percent	41^B percent and 30^B percent	> 1000 µM and < 1000 µM			
CC(=O)Nc1cc(N(C)C)c2c(c1O)C(=O)C1=C(O)C3(O)C(=O)C(C(N)=O)=C(O)C(N(C)C)C3CC1C2 (stereo not drawn) [Compound 8, 9-Acetamido-7-dimethylamino-6-demethyl-6-deoxytetracycline H2SO4]	> 1000	599	> 1000	> 1000	232	+10%	+5%	+13%				13^B percent	41^B percent	40^B percent	0%	+4%	0%	388 µM	11%	3%	percent inhibition, RPMI-8226 (Multiple Myeloma) ([6]; 25 ug/mL): +2%
